Experimental data published in ChEMBL document CHEMBL3588816, “Molecular modeling of the human P2Y14 receptor: A template for structure-based design of selective agonist ligands” (Bioorg Med Chem, 2015).
pEC50: −log10 of the molar value. Calls of active or inactive are those of the source. The calls are words filed in the database; no cut-off is given here.

target: T1, P2Y purinoceptor 14 (Homo sapiens, UniProt Q15391); assay: Agonist activity at recombinant human P2Y14 receptor expressed in African green monkey COS7 cells co-transfected with Galphaqi assessed as stimulation of phospholipase Cbeta; type: cell-based, COS-7; conditions: not given
T1 sequence (Q15391 whole entry): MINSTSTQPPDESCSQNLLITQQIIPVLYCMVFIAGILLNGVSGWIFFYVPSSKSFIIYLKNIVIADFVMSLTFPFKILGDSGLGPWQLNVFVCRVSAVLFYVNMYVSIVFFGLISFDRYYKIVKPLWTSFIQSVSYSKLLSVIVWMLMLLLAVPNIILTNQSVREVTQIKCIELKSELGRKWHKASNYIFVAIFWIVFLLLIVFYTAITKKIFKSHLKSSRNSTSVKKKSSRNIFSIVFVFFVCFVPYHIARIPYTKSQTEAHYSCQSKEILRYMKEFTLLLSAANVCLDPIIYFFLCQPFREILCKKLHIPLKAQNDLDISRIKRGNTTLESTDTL

pEC50 | SMILES
7.96 | O=c1ccn([C@@H]2O[C@H](COP(=O)(O)OP(=O)(O)O[C@H]3O[C@H](CO)[C@@H](O)[C@H](O)[C@H]3O)[C@@H](O)[C@H]2O)c(=S)[nH]1

target: T2, P2Y purinoceptor 14 (Homo sapiens) (UniProt Q15391); assay: Agonist activity at recombinant human P2Y14 receptor expressed in African green monkey COS7 cells co-transfected with Galphaqi assessed as stimulation of phospholipase Cbeta at 10 uM; type: cell-based; conditions: COS-7
T2 sequence (whole entry): T1 sequence (Q15391 whole entry)

Activity | SMILES
inactive | N[C@@H]1[C@H](O)[C@@H](COP(=O)(O)OP(=O)(O)O[C@H]2O[C@H](CO)[C@@H](O)[C@H](O)[C@H]2O)O[C@H]1n1ccc(=O)[nH]c1=O
inactive | O=c1ccn([C@]23C[C@H]2[C@H](COP(=O)(O)OP(=O)(O)O[C@H]2O[C@H](CO)[C@@H](O)[C@H](O)[C@H]2O)[C@@H](O)[C@H]3O)c(=O)[nH]1
inactive | [N-]=[N+]=N[C@@H]1[C@H](O)[C@@H](COP(=O)(O)OP(=O)(O)O[C@H]2O[C@H](CO)[C@@H](O)[C@H](O)[C@H]2O)O[C@H]1n1ccc(=O)[nH]c1=O
inactive | [N-]=[N+]=Nc1cn([C@@H]2O[C@H](COP(=O)(O)OP(=O)(O)O[C@H]3O[C@H](CO)[C@@H](O)[C@H](O)[C@H]3O)[C@@H](O)[C@H]2O)c(=O)[nH]c1=O
inactive | O=c1ccn([C@H]2[C@H](O)[C@H](O)[C@]3(COP(=O)(O)OP(=O)(O)O[C@H]4O[C@H](CO)[C@@H](O)[C@H](O)[C@H]4O)C[C@H]23)c(=O)[nH]1
inactive | Nc1cn([C@@H]2O[C@H](COP(=O)(O)OP(=O)(O)O[C@H]3O[C@H](CO)[C@@H](O)[C@H](O)[C@H]3O)[C@@H](O)[C@H]2O)c(=O)[nH]c1=O
inactive | O=c1[nH]c(=O)n([C@@H]2O[C@H](COP(=O)(O)OP(=O)(O)O[C@H]3O[C@H](CO)[C@@H](O)[C@H](O)[C@H]3O)[C@@H](O)[C@H]2O)cc1I
